# “Also recorded” adds a separate entry of the source. Where a name gives a salt, the structure may show the parent alone.
# What was measured:
# HSV-1 = HSV-1 infection of hiNSCs with VCV treatment (HSV immunostaining, qPCR for HSV-UL29); format: cell-based, herpes simplex virus type 1
# Method: (§1) hiNSC colonies were trypsinized off of MEF feeder layers using TrypLE (Invitrogen) and then dissociated by manual pipetting. Cell suspensions were passaged through a 40- to […] cell strainer to remove larger aggregates. Dissociated hiNSCs were cultured on gelatin-coated plates in neurobasal media supplemented with 2% B27 (Invitrogen), 1% glutamax, and 1% antibiotic-antimycotic. For HSV infection, we used purified HSV-1 to directly infect hiNSCs at a range of MOIs (0.00001 to 1), which was calculated based on the starting virus concentration (2×10^7 PFU/ml) and initial seeding density.
# (§2) Once added to media, inoculum was allowed to remain in cell cultures for the duration of the experiment to mimic low-level brain infection. For mock infections, an equal volume of control culture medium from uninfected Vero cells was used. All virus work was approved by the Tufts Institutional Biosafety Committee. Valacyclovir (VCV) HCl was reconstituted in dH2O and used at a concentration of 200 μM for all subsequent experiments. […]
# (§3) Total RNA was isolated using the RNeasy Mini Kit (Qiagen). […] Quantitative reverse transcription PCR (qRT-PCR) was performed using SYBR Green and the CFX96 Real-Time PCR Detection System (Bio-Rad) and normalized against the housekeeping gene glyceraldehyde phosphate dehydrogenase. […]
# HSV-1-infected hiNSCs [1] = assay: Aβ+ plaque-like formations (PLFs) in HSV-1-infected hiNSCs, immunostaining; format: cell-based, human; details: 200 μM VCV, MOI 0.0001, HCl
# Method: as §1
# (§4) Once added to media, inoculum was allowed to remain in cell cultures for the duration of the experiment to mimic low-level brain infection. For mock infections, an equal volume of control culture medium from uninfected Vero cells was used. All virus work was approved by the Tufts Institutional Biosafety Committee. Valacyclovir (VCV) HCl was reconstituted in dH2O and used at a concentration of 200 μM for all subsequent experiments. VCV was added at day 0 (D0; concurrently with HSV-1 infection) or day 1 (D1; 24 hours after infection).
# Cells grown in tissue culture plates or in 3D scaffolds were fixed in 4% paraformaldehyde and washed with 1×phosphate-buffered saline (PBS). Samples were incubated with a blocking buffer consisting of PBS, 10% goat serum, and 0.1% Triton X-100. […]
# [2] = tested on: APP, BACE1, PSEN1, and PSEN2; assay: qPCR expression of AD mediators (APP, BACE1, PSEN1, PSEN2) in HSV-1-infected hiNSCs; format: cell-based, human; details: HSV-1 MOI 0.0001
# Method: as §1, §2, §3
# HSV-1-infected hiNSCs [3] = assay: Gliosis and neuroinflammation (GFAP, TNFα) in HSV-1-infected hiNSCs, immunostaining and qPCR; format: cell-based, human
# Method: as §1, §2, §3
# hiNSCs [4] = assay: Conditioned media (CM) experiment: reactive glia formation in new hiNSCs, TUJ1 and GFAP immunostaining; format: cell-based, human; details: VCV in virus CM with fresh HSV-1; new hiNSCs cultured for 4 days
# Method: Cells grown in tissue culture plates or in 3D scaffolds were fixed in 4% paraformaldehyde and washed with 1×phosphate-buffered saline (PBS). Samples were incubated with a blocking buffer consisting of PBS, 10% goat serum, and 0.1% Triton X-100. Primary antibodies were added to the blocking buffer and incubated with samples overnight at 4° C. The next day, samples were washed several times with PBS and incubated with a corresponding fluorescently conjugated secondary antibody in a blocking buffer for 1 hour at room temperature. Nuclei were counterstained with 4′,6-diamidino-2-phenylindole (Invitrogen).
# Moreover, we aimed to understand whether HSV-1-secreted factors could cause gliosis even in the absence of infection (FIG. 7). CM were harvested and filtered from mock- or HSV-1-infected hiNSCs that had been cultured for 2 days. Fresh HSV-1 virus was added to CM in the absence or presence of antiviral treatment VCV, and new hiNSCs were cultured for 4 days. β-III tubulin (TUJ1) and GFAP immunostaining was performed to visualize neurons and glia, respectively.
# hiNSCs [5] = assay: VCV alone in the absence of virus on hiNSCs; format: cell-based, human; details: 200 μM VCV alone, no virus (data not shown)
# Method: as §4
# One of the most commonly used antiviral agents for treating HSV-1 infections is VCV, which specifically targets viral DNA replication in infected cells. We cultured hiNSCs for 4 days before subjecting to either mock or HSV-1 infection (MOI 0.0001). […] We first immunostained against HSV and Aβ (FIG. 4A) to determine any differences in the rate of HSV-1 infection and PLF generation in response to drug treatment.
# HSV-1-infected hiNSCs [6] = assay: Latency model of HSV-1 infection in hiNSCs (acute infection followed by antiviral treatment), qPCR; format: cell-based, human; details: acute HSV-1 infection 24 hrs followed by antiviral treatment (latency induction)
# Excerpt: A) Schematic of timeline of HSV-1 and antiviral treatments to induce latency. Acute infection of hiNSCs with HSV-1 for 24 hrs. followed by antiviral treatment results in similar expression patterns of typical AD markers as described previously (B-D). E) This treatment also results in quantifiable expression of HSV-1 latency associated transcript (LAT).
# HSV-1 typically lies latent in the peripheral nervous system indefinitely, and it is only upon reactivation that this virus can exert its detrimental effects such as cold sores and potentially neurodegeneration. Understanding potential triggers of this viral reactivation are crucial in elucidating downstream pathways involved in disease pathogenesis. There are currently few if any suitable in vitro models of HSV-1 latency. Here, we describe a method with which to induce latency of HSV-1 in vitro. […] Induction of latency with valacyclovir was also associated with an increase in glial fibrillary acidic protein (GFAP) expression (FIG. 21D), which is indicative of gliosis.
compound,measurement,setting,value
"CC(C)[C@H](N)C(=O)OCCOCn1cnc2c(=O)[nH]c(N)nc21 [VCV, Valacyclovir HCl]",HSV-1 infection,"HSV-1; 200 μM VCV at D0 (concurrently with HSV-1 infection), MOI 0.0001",almost completely abolished infection
same,HSV-1 infection (immunostaining and qPCR for HSV-UL29),"HSV-1; 200 μM VCV, both drug regimens (D0 or D1), HSV-1 MOI 0.0001, hiNSCs, HCl",significant decrease; also recorded: reduces HSV-1 infection
same,average number of PLFs,HSV-1-infected hiNSCs [1],significantly reduced; also recorded: decrease
same,average size (area) of PLFs,HSV-1-infected hiNSCs [1],significantly reduced; also recorded: decrease
same,"expression of AD mediators APP, BACE1, PSEN1 and PSEN2 (qPCR)",[2]; 200 μM VCV at D0,nearly rescued all markers back to control values
same,"expression of AD mediators APP, BACE1, PSEN1 and PSEN2 (qPCR)",[2]; 200 μM VCV at D1 (24 hours after infection),partial rescue
same,GFAP expression (immunostaining and qPCR),HSV-1-infected hiNSCs [3]; 200 μM VCV at D0,almost completely restored
same,pro-inflammatory mediator TNFα,"HSV-1-infected hiNSCs [3]; 200 μM VCV, both D0 and D1 dosing regimens",significantly reduced
same,reactive glia formation,hiNSCs [4],increased reactive glia formation
same,effect on hiNSCs in the absence of virus,hiNSCs [5],no discernible effect
same,HSV-1 latency associated transcript (LAT),HSV-1-infected hiNSCs [6],significant increase
same,PSEN2 expression,HSV-1-infected hiNSCs [6],significant increase
same,glial fibrillary acidic protein (GFAP) expression,HSV-1-infected hiNSCs [6],increase
